pIC50: −log10 of the molar value. Square brackets hold non-standard residues; d marks the D form. Peptide text beside a SMILES is read from it. * marks the point of attachment. ξ: configuration not given here. d(αMeF) = C[C@@](N)(Cc1ccccc1)C(=O)O; 2Pal = N[C@@H](Cc1ccccn1)C(=O)O; 2Thi = N[C@@H](Cc1cccs1)C(=O)O; d2Thi = N[C@H](Cc1cccs1)C(=O)O; Tle = CC(C)(C)[C@H](N)C(=O)O; ξαMeL = CC(C)CC(C)(N)C(=O)O; ξF = NC(Cc1ccccc1)C(=O)O; Bn = c1ccc(C*)cc1; Ms = CS(=O)(=O)*
Assays:
Assay type in all cases: biochemical
thrombin = target: T1, thrombin (Homo sapiens, UniProt P00734); assay: Inhibition of thrombin; details: Table III; 10 uM; read-out: Thrombin % I @ 10 uM
T1 construct: purchased Sigma Chem. Co. T-7009

[1] = target: T2, Recombinant human calpain I (Homo sapiens, UniProt P07384); assay: Inhibition of calpain I activity; details: Table III
T2 construct: made in house
T2 sequence (P07384 1-714): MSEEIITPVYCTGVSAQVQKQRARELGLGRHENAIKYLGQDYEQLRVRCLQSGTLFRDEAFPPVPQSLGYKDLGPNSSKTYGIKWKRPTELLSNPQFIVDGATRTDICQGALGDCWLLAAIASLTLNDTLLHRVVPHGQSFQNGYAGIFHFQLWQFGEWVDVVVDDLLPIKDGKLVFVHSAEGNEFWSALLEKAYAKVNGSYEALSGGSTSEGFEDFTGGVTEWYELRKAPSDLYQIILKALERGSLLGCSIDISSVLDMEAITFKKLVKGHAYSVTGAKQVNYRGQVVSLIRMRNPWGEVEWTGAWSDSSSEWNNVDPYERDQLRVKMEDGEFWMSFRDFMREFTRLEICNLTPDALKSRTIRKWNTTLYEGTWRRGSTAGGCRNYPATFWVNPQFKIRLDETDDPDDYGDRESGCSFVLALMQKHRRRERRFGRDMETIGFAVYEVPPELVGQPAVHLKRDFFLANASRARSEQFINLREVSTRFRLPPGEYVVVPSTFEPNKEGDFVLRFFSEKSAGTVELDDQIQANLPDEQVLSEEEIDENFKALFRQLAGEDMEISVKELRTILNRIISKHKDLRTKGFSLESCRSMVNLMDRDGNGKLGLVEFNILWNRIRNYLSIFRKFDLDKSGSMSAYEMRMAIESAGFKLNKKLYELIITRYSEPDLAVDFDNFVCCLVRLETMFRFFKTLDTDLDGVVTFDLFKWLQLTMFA
Description: To evaluate inhibitory activity, stock solutions (40 times concentrated) of exemplary compounds of the invention were prepared in 100% anhydrous DMSO and 5 μL of each inhibitor preparation were aliquoted into each of three wells of a 96-well plate. Recombinant human calpain I, prepared by the method of Meyer et al. (Biochem. […] To start the reaction, 20 μL of 50 mM CaCl2 in assay buffer was added to all wells of the plate, excepting three, which were used as background signal baseline controls. Substrate hydrolysis was monitored every 5 minutes for a total of 30 minutes. […] Inhibition of calpain I activity was calculated as the percent decrease in the rate of substrate hydrolysis in the presence of inhibitor (VI) relative to the rate in its absence (VO). Comparison between VO and VI was made within the linear range for substrate hydrolysis. For screening, compounds were tested at 10, 1.0, and 0.1 μM. […] The results were plotted as % inhibition versus log inhibitor concentration and the IC50 was calculated from linear regression of the data. Apparent second order rate constants were determined from analysis of reaction progress curves under pseudo-first order conditions. Each determination represents the means of three or more independent single cuvette analyses continually monitored via a Perkin-Elmer LS50B spectrofluorimeter. The rate of inhibition of hydrolysis was obtained by fitting the curve to the exponential equation (1): […]

α-chymotrypsin = target: T3, α-chymotrypsin (Bos taurus, UniProt P00766); assay: Inhibition of α-chymotrypsin; details: Table III; 10 uM; read-out: Chymotrypsin % I @ 10 uM
T3 construct: purchased Sigma Chem. Co. C-3142
Description: Additionally, because α-chymotrypsin is not a calcium sensitive enzyme and is constitutively active, following addition of inhibitor stocks to the 96 well plates, 100 μl of a 2-fold concentrated stock of enzyme in dilution buffer was first added and the reaction started by addition of 100 μl of a 2-fold concentrated stock of substrate in assay buffer. Substrate hydrolysis was monitored every 5 minutes up to 30 minutes using a Fluoroskan II ([…]).

cathepsin L = target: T4, cathepsin L (Homo sapiens, UniProt P07711); assay: Inhibition of cathepsin L; details: Table III; 1 uM; read-out: Cat L % I @ 1 uM
T4 construct: purchased Calbiochem 219402
T4 sequence (P07711 114-288 limits assumed): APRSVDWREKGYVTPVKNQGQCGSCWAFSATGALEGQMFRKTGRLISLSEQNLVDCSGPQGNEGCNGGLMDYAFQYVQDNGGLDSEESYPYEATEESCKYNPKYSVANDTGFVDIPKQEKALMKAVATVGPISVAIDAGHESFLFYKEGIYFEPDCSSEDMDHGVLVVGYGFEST
T4 sequence (P07711 292-333 limits assumed): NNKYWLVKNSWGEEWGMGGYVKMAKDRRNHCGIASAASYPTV
Description: (§1) Additionally,the order of reagents added to the plate was altered because both enzymes are constitutively active. Following inhibitor addition to the plates, appropriate 2× concentrated stock dilutions of the enzyme preparations were made in assay buffer and 100 μl added to each well. The assay was initiated by addition of 100 μl of 2× concentrated stock dilution of substrate in assay buffer.

cathepsin B = target: T5, cathepsin B (Homo sapiens, UniProt P07858); assay: Inhibition of cathepsin B; details: Table III; for inhibition at 1 µM: read-out: Cat B % I @ 1 uM
T5 construct: purchased Calbiochem 219364
Description: as §1

Work on `CS(=O)(=O)N[C@@H](Cc1cccs1)C(=O)N[C@H](C=O)Cc1ccccc1` [Compound 99] (Ms-[2Thi]-Phe-aldehyde) yielded an inhibition at 10 µM (thrombin) of 0%, a pIC50 [1] of 7.21 and an inhibition at 0.1 µM [1] of 66%. It also gave an inhibition at 10 µM (α-chymotrypsin) of 13%, an inhibition at 1 µM (cathepsin L) of 100% and an inhibition at 1 µM (cathepsin B) of 96%.
`CS(=O)(=O)N[C@H](Cc1cccs1)C(=O)N[C@H](C=O)Cc1ccccc1` [Compound 100] (Ms-[d2Thi]-Phe-aldehyde) gave an inhibition at 10 µM (thrombin) of 0%, a pIC50 [1] of 7.82 and an inhibition at 0.1 µM [1] of 96%. For the same compound, the inhibition at 10 µM (α-chymotrypsin) was 0%, the inhibition at 1 µM (cathepsin L) was 100% and the inhibition at 1 µM (cathepsin B) was 97%. The pIC50 (cathepsin B; read-out: Cat B IC50) was 7.51.
With `CS(=O)(=O)N1CCC[C@@H]1C(=O)N[C@H](C=O)Cc1ccccc1` [Compound 101] (Ms-[dP]-Phe-aldehyde) the inhibition at 10 µM (thrombin) was 0%, the pIC50 [1] was 7.28 and the inhibition at 0.1 µM [1] was 84%. For the same compound, the inhibition at 10 µM (α-chymotrypsin) was 2%, the inhibition at 1 µM (cathepsin L) was 100% and the inhibition at 1 µM (cathepsin B) was 46%.
`O=C[C@H](Cc1ccccc1)NC(=O)[C@H]1CCCN1S(=O)(=O)Cc1ccccc1` [Compound 102] showed an inhibition at 10 µM (thrombin) of 7%, a pIC50 [1] of 7.14 and an inhibition at 0.1 µM [1] of 63%. It also gave an inhibition at 10 µM (α-chymotrypsin) of 0%, an inhibition at 1 µM (cathepsin L) of 73% and an inhibition at 1 µM (cathepsin B) of 69%.
`CC(=O)Nc1ccc(S(=O)(=O)N2CCC[C@@H]2C(=O)N[C@H](C=O)Cc2ccccc2)cc1` [Compound 103] gave an inhibition at 10 µM (thrombin) of 3%, a pIC50 [1] of 7.15 and an inhibition at 0.1 µM [1] of 37%. The inhibition at 10 µM (α-chymotrypsin) was 26%, the inhibition at 1 µM (cathepsin L) was 56% and the inhibition at 1 µM (cathepsin B) was 40%.
Compound `C[C@@H](NS(=O)(=O)c1ccccc1)C(=O)N[C@H](C=O)Cc1ccccc1` [Compound 104] has an inhibition at 10 µM (thrombin) of 7%, a pIC50 [1] of 7.03 and an inhibition at 0.1 µM [1] of 45%. It also gave an inhibition at 10 µM (α-chymotrypsin) of 6%, an inhibition at 1 µM (cathepsin L) of 97% and an inhibition at 1 µM (cathepsin B) of 86%.
For `C[C@](Cc1ccccc1)(NS(C)(=O)=O)C(=O)NC(C=O)Cc1ccccc1` (stereo partly drawn) [Compound 105] (Ms-[d(αMeF)]-[ξF]-aldehyde), the inhibition at 10 µM (thrombin) was 0%, the inhibition at 0.1 µM [1] was 9% and the inhibition at 10 µM (α-chymotrypsin) was 10%. The inhibition at 1 µM (cathepsin L) was 71% and the inhibition at 1 µM (cathepsin B) was 45%.
`CS(=O)(=O)N[C@H](CSCc1ccccc1)C(=O)N[C@H](C=O)Cc1ccccc1` [Compound 106] (Ms-[dC](Bn)-Phe-aldehyde) showed an inhibition at 10 µM (thrombin) of 7%, a pIC50 [1] of 8.10 and an inhibition at 0.1 µM [1] of 95%. The inhibition at 10 µM (α-chymotrypsin) was 16%, the inhibition at 1 µM (cathepsin L) was 100% and the inhibition at 1 µM (cathepsin B) was 92%.
`CS(=O)(=O)N[C@H](COCc1ccccc1)C(=O)N[C@H](C=O)Cc1ccccn1` [Compound 109] (Ms-[dS](Bn)-[2Pal]-aldehyde) showed an inhibition at 10 µM (thrombin) of 0%, a pIC50 [1] of 7.40 and an inhibition at 0.1 µM [1] of 59%. The inhibition at 10 µM (α-chymotrypsin) was 0%, the inhibition at 1 µM (cathepsin L) was 98% and the inhibition at 1 µM (cathepsin B) was 70%.
`CC(C)CC(C)(C=O)NC(=O)[C@@H](COCc1ccccc1)NS(C)(=O)=O` (stereo partly drawn) [Compound 110] (Ms-[dS](Bn)-[ξαMeL]-aldehyde) was tested, and the inhibition at 10 µM (thrombin) was 0%, the inhibition at 0.1 µM [1] was 10% and the inhibition at 10 µM (α-chymotrypsin) was 0%. It also gave an inhibition at 1 µM (cathepsin L) of 83% and an inhibition at 1 µM (cathepsin B) of 12%.
`CC(C)(C)[C@@H](C=O)NC(=O)[C@@H](COCc1ccccc1)NS(C)(=O)=O` [Compound 111] (Ms-[dS](Bn)-[Tle]-aldehyde) gave an inhibition at 10 µM (thrombin) of 0%, an inhibition at 0.1 µM [1] of 27% and an inhibition at 10 µM (α-chymotrypsin) of 16%. The inhibition at 1 µM (cathepsin L) was 91% and the inhibition at 1 µM (cathepsin B) was 10%.
With `O=C[C@H](Cc1ccccc1)NC(=O)[C@H]1C[C@@H](OS(=O)(=O)c2ccccc2)CN1S(=O)(=O)c1ccccc1` [Compound 112] the inhibition at 10 µM (thrombin) was 0%, the inhibition at 0.1 µM [1] was 7% and the inhibition at 10 µM (α-chymotrypsin) was 9%. The inhibition at 1 µM (cathepsin L) was 100% and the inhibition at 1 µM (cathepsin B) was 25%.

From patent US5852007A, “Cysteine and serine protease inhibitors containing D-amino acid at the P2 position, methods of making same, and methods of using same” (priority 1997, dated 1998)
